Experiment [1] concerns the target T1, Giardia lamblia fructose 1,6-bisphosphate aldolase (GlFBPA) (Giardia intestinalis, UniProt A8B2U2). The following applies: read-out: GlFBPA inhibition constant (Ki); inert substrate analog; ref [25]; cited from earlier work.
Experiment [2] deals with T1, Giardia lamblia fructose 1,6-bisphosphate aldolase (GlFBPA). Briefly: GlFBPA inhibition constants, steady-state kinetics.

Where two headings read alike, the source gives them in different places.

T1 sequence (A8B2U2 whole entry): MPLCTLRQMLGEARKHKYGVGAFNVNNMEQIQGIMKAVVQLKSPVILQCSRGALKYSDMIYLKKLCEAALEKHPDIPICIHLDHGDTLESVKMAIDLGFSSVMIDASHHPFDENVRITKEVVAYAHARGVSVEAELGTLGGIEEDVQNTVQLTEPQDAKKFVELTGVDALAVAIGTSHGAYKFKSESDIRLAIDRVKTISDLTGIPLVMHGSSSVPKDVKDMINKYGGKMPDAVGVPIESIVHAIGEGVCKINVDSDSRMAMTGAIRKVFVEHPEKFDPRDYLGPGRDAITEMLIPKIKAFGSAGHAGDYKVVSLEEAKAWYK

Regarding `O=C(COP(=O)(O)O)[C@@H](O)[C@@H](O)[C@H](O)COP(=O)(O)O` [TBP, tagatose 1,6-bisphosphate], the inhibition constant Ki in experiment [1] is 1 µM.

For the compound `O=c1c(O)cccn1CP(=O)(O)O` [Compound 1, N-phosphonomethyl-3-hydroxy-2-pyridone], the affinity in experiment [2], expressed as Ki, was 1200 ± 200 µM.

The values above are taken from publication PMC3071891 (Journal of inorganic biochemistry, 2010).
